A short description of series [1]: Physical and chemical stability of salts of I-18, 1 week (XRPD, HPLC purity). The class given is physicochemical. The note with it: for Area (%) of HPLC peak RRT 1.00: main peak; for Area (%) of HPLC peak RRT 1.17: peak = parent compound formed by hydrolysis; for Form change: XRPD; for Initial purity (area %): HPLC, before storage. The procedure:
The physical and chemical stability of the K salt, Arginine salt, Choline salt and Tris salt were evaluated under conditions of 25° C./60% RH and 40° C./75% RH for 1 week. Each sample was added into 3 mL glass vials, sealed by parafilm with several holes, and kept under tested condition. After one week, samples was taken for XRPD and HPLC purity test.

Series [2] can be described thus: Pharmacokinetics in male cynomolgus monkeys (co-crystal capsules, spray-dried dispersion). The class given is in vivo. The procedure:
Two groups of male cynomolgus monkeys (n=3/group) were administered test articles in a 3-way crossover design as indicated in Table 2. The washout period between doses was 3-4 days. Test article capsules were prepared such that each capsule contained an equivalent of 25 mg of free base compound I-1. The organic stock solution of compound I-1 was prepared at a concentration of 5 mg/ml using TPGS/PEG400/PG, and was diluted with apple juice within 1 hour of dosing (PO) at 1 part stock solution to 3 parts apple juice.
FIGS. 11-14 provide graphs of the plasma concentrations obtained from administering the co-crystal formulations of compound I-1 to monkeys. And Table 3 provides pharmacokinetic (PK) data for the co-crystal formulations, including the average area under the curve (AUC) and percent bioavailability.
FIG. 19 provides PK data for one embodiment of the disclosed spray-dried formulation, and the organic/juice formulation.

Setting [3] is: 25° C./60% RH, 1 week, listed as potassium salt.
[4] abbreviates: 40° C./75% RH, 1 week, listed as potassium salt.
The mark [5] stands for this setting: Initial, listed as potassium salt.
[6] abbreviates: 25° C./60% RH, 1 week, listed as tris salt.
Where [7] appears, read: 40° C./75% RH, 1 week, listed as tris salt.
The mark [8] stands for this setting: 25° C./60% RH, 1 week, listed as choline salt.
Setting [9] is: 40° C./75% RH, 1 week, listed as choline salt.
The mark [10] stands for this setting: Initial, listed as choline salt.

By bioavailability is commonly meant dose-corrected exposure relative to a reference, in per cent.

Structures are written as SMILES. Where a name gives a salt, the structure may show the parent alone. Bounds are passed on as bounds.

As to `CCO[C@H]1CC[C@H](n2cc(NC(=O)c3csc(-c4cnn(C(C)OP(=O)(O)O)c4)n3)c(-c3nc(F)ccc3F)n2)CC1` (stereo partly drawn) [I-108, potassium 1-(4-(4-((3-(3,6-difluoropyridin-2-yl)-1-((1r,4r)-4-ethoxycyclohexyl)-1H-pyrazol-4-yl)carbamoyl)thiazol-2-yl)-1H-pyrazol-1-yl)ethyl hydrogen phosphate], in series [1] (25° C./60% RH, 1 week), the “Area (%) of HPLC peak RRT 1.14” value is given as below 0.04%, the “Area (%) of HPLC peak RRT 1.40” value is on record as 0.25%, the “Area (%) of HPLC peak RRT 1.44” value came to 0.30% and the “Area (%) of HPLC peak RRT 1.70” value came to 0.27%. In series [1] (25° C./60% RH, 1 week), the “Area (%) of HPLC peak RRT 1.72” value is on record as 0.78% and the “Area (%) of HPLC peak RRT 1.81” value is below 0.04%. Moreover, in series [1] (25° C./60% RH, 1 week, listed as K salt), the HPLC purity change result is “slight purity decrease”. In series [1] (setting [3]), the “Area (%) of HPLC peak RRT 1.00” value is listed as 96.26% and the “Area (%) of HPLC peak RRT 1.17” value worked out at 2.14%. Moreover, in series [1] (25° C./60% RH/1 week, listed as K salt), the Form change result was “no form change and No”. Also, in series [1] (40° C./75% RH, 1 week), the “Area (%) of HPLC peak RRT 1.14” value was determined as 0.05%, the “Area (%) of HPLC peak RRT 1.40” value came to 0.39%, the “Area (%) of HPLC peak RRT 1.44” value was found to be 0.24% and the “Area (%) of HPLC peak RRT 1.70” value is recorded as 0.24%. Besides, in series [1] (40° C./75% RH, 1 week), the “Area (%) of HPLC peak RRT 1.72” value came to 0.83% and the “Area (%) of HPLC peak RRT 1.81” value was determined as 0.04%. Moreover, the HPLC purity change result in series [1] (40° C./75% RH, 1 week, listed as K salt) is on record as “slight purity decrease”. Also, in series [1] (setting [4]), the “Area (%) of HPLC peak RRT 1.00” value stood at 96.40% and the “Area (%) of HPLC peak RRT 1.17” value came to 1.80%. The Form change entry in series [1] (40° C./75% RH/1 week, listed as K salt) is “a form change was observed and Yes”. The “Initial purity (area %)” value in series [1] (listed as K salt) was 97.27 area %. Further, in series [1] (Initial), the “Area (%) of HPLC peak RRT 1.14” value is listed as below 0.04%, the “Area (%) of HPLC peak RRT 1.40” value worked out at 0.23%, the “Area (%) of HPLC peak RRT 1.44” value is recorded as 0.21% and the “Area (%) of HPLC peak RRT 1.70” value was 0.18%. In series [1] (Initial), the “Area (%) of HPLC peak RRT 1.72” value was 0.77% and the “Area (%) of HPLC peak RRT 1.81” value is recorded as below 0.04%. For the same compound, in series [1] (setting [5]), the “Area (%) of HPLC peak RRT 1.00” value stood at 97.27% and the “Area (%) of HPLC peak RRT 1.17” value was found to be 1.33%.
In the case of `CCO[C@H]1CC[C@H](n2cc(NC(=O)c3csc(-c4cn[nH]c4)n3)c(-c3nc(F)ccc3F)n2)CC1` [I-105, N-(3-(3,6-difluoropyridin-2-yl)-1-((1r,4r)-4-ethoxycyclohexyl)-1H-pyrazol-4-yl)-2-(1H-pyrazol-4-yl)thiazole-4-carboxamide gentisate], in series [2] (n=3, capsule with equivalent of 25 mg free base compound I-1, listed as Gentisate cocystal), the “% F (percent bioavailability)” value is 9.8%.
`CCO[C@H]1CC[C@H](n2cc(NC(=O)c3csc(-c4cn[nH]c4)n3)c(-c3nc(F)ccc3F)n2)CC1.O=C(O)C(O)C(O)C(=O)O` [I-11, N-(3-(3,6-difluoropyridin-2-yl)-1-((1r,4r)-4-ethoxycyclohexyl)-1H-pyrazol-4-yl)-2-(1H-pyrazol-4-yl)thiazole-4-carboxamide hemi-tartrate salt]: the “% F (percent bioavailability)” value in series [2] (n=3, capsule with equivalent of 25 mg free base compound I-1) was 24.7%.
On to `CCO[C@H]1CC[C@H](n2cc(NC(=O)c3csc(-c4cnn(C(C)OP(=O)(O)O)c4)n3)c(-c3nc(F)ccc3F)n2)CC1` (stereo partly drawn) [I-49, 1-(4-(4-((3-(3,6-difluoropyridin-2-yl)-1-((1r,4r)-4-ethoxycyclohexyl)-1H-pyrazol-4-yl)carbamoyl)thiazol-2-yl)-1H-pyrazol-1-yl)ethyl dihydrogen phosphate tris salt], for which, in series [1] (25° C./60% RH, 1 week), the “Area (%) of HPLC peak RRT 1.13” value is given as 0.06%. Also, in series [1] (setting [6]), the “Area (%) of HPLC peak RRT 0.77” value was below 0.03%, the “Area (%) of HPLC peak RRT 1.45” value was found to be 0.35%, the “Area (%) of HPLC peak RRT 1.71” value is recorded as 0.80% and the “Area (%) of HPLC peak RRT 1.73” value is on record as 0.55%. Besides, in series [1] (setting [6]), the HPLC purity change entry is “no HPLC purity decrease”, the “Area (%) of HPLC peak RRT 1.00” value is on record as 96.61% and the “Area (%) of HPLC peak RRT 1.17” value was 1.63%. In addition, in series [1] (25° C./60% RH/1 week, listed as Tris salt), the Form change entry was “no form change and No”. For the same compound, in series [1] (setting [7]), the “Area (%) of HPLC peak RRT 0.77” value was determined as 0.03%, the “Area (%) of HPLC peak RRT 1.45” value was found to be 0.47%, the “Area (%) of HPLC peak RRT 1.71” value was 0.88% and the “Area (%) of HPLC peak RRT 1.73” value came out at 0.84%. Also, in series [1] (setting [7]), the HPLC purity change result is “a purity decrease was observed”, the “Area (%) of HPLC peak RRT 1.00” value is given as 95.03% and the “Area (%) of HPLC peak RRT 1.17” value worked out at 2.69%. For the same compound, the Form change entry in series [1] (40° C./75% RH/1 week, listed as Tris salt) is “no form change and No”. Moreover, in series [1] (listed as Tris salt), the “Initial purity (area %)” value is 96.06 area %. For the same compound, in series [1] (Initial, listed as tris salt), the “Area (%) of HPLC peak RRT 0.77” value is below 0.03%, the “Area (%) of HPLC peak RRT 1.13” value is reported as 0.07%, the “Area (%) of HPLC peak RRT 1.45” value worked out at 0.37% and the “Area (%) of HPLC peak RRT 1.71” value is 0.86%. Besides, in series [1] (Initial, listed as tris salt), the “Area (%) of HPLC peak RRT 1.73” value worked out at 0.76%, the “Area (%) of HPLC peak RRT 1.00” value was 96.06% and the “Area (%) of HPLC peak RRT 1.17” value was 1.87%.
For `CCO[C@H]1CC[C@H](n2cc(NC(=O)c3csc(-c4cnn(C(C)OP(=O)(O)O)c4)n3)c(-c3nc(F)ccc3F)n2)CC1` (stereo partly drawn) [I-111, 1-(4-(4-((3-(3,6-difluoropyridin-2-yl)-1-((1r,4r)-4-ethoxycyclohexyl)-1H-pyrazol-4-yl)carbamoyl)thiazol-2-yl)-1H-pyrazol-1-yl)ethyl dihydrogen phosphate choline salt], in series [1] (setting [8]), the “Area (%) of HPLC peak RRT 0.77” value was determined as 0.04%, the “Area (%) of HPLC peak RRT 1.35” value is on record as 0.10%, the “Area (%) of HPLC peak RRT 1.45” value is listed as 0.07% and the “Area (%) of HPLC peak RRT 1.71” value was 0.05%. Moreover, in series [1] (setting [8]), the “Area (%) of HPLC peak RRT 1.73” value came to 0.46%, the HPLC purity change entry was “no HPLC purity decrease”, the “Area (%) of HPLC peak RRT 1.00” value is listed as 98.66% and the “Area (%) of HPLC peak RRT 1.17” value amounted to 0.58%. For the same compound, the “Purity/Initial purity (%)” value in series [1] (25° C./60% RH/1 week) was 100.0%. In addition, the Form change entry in series [1] (25° C./60% RH/1 week, listed as Choline salt) is “no form change and No”. Moreover, in series [1] (setting [9]), the “Area (%) of HPLC peak RRT 0.77” value is given as 0.04%, the “Area (%) of HPLC peak RRT 1.35” value is reported as 0.14%, the “Area (%) of HPLC peak RRT 1.45” value worked out at 0.11% and the “Area (%) of HPLC peak RRT 1.71” value is 0.08%. Moreover, in series [1] (setting [9]), the “Area (%) of HPLC peak RRT 1.73” value is given as 0.46%, the HPLC purity change entry is “a purity decrease was observed”, the “Area (%) of HPLC peak RRT 1.00” value worked out at 97.81% and the “Area (%) of HPLC peak RRT 1.17” value is on record as 1.31%. In addition, the Form change result in series [1] (40° C./75% RH/1 week, listed as Choline salt) is “no form change and No”. Besides, the “Initial purity (area %)” value in series [1] (listed as Choline salt) was 98.70 area %. In series [1] (Initial), the “Area (%) of HPLC peak RRT 1.35” value was below 0.03%. Further, in series [1] (setting [10]), the “Area (%) of HPLC peak RRT 0.77” value is on record as 0.03%, the “Area (%) of HPLC peak RRT 1.13” value amounted to 0.06%, the “Area (%) of HPLC peak RRT 1.45” value was found to be 0.06% and the “Area (%) of HPLC peak RRT 1.71” value is recorded as 0.06%. In series [1] (setting [10]), the “Area (%) of HPLC peak RRT 1.73” value is 0.33%, the “Area (%) of HPLC peak RRT 1.00” value amounted to 98.70% and the “Area (%) of HPLC peak RRT 1.17” value is listed as 0.75%.
For the compound `CCO[C@H]1CC[C@H](n2cc(NC(=O)c3csc(-c4cn[nH]c4)n3)c(-c3nc(F)ccc3F)n2)CC1` [I-106, N-(3-(3,6-difluoropyridin-2-yl)-1-((1r,4r)-4-ethoxycyclohexyl)-1H-pyrazol-4-yl)-2-(1H-pyrazol-4-yl)thiazole-4-carboxamide succinate], the “% F (percent bioavailability)” value in series [2] (n=3, capsule with equivalent of 25 mg free base compound I-1, listed as Succinate co-crystal) turned out to be 12.7%.
Take `CCO[C@H]1CC[C@H](n2cc(NC(=O)c3csc(-c4cn[nH]c4)n3)c(-c3nc(F)ccc3F)n2)CC1` [I-104, N-(3-(3,6-difluoropyridin-2-yl)-1-((1r,4r)-4-ethoxycyclohexyl)-1H-pyrazol-4-yl)-2-(1H-pyrazol-4-yl)thiazole-4-carboxamide phosphate]: the bioavailability in series [2] (cynomolgus monkey, plasma, po, n=3, capsule with equivalent of 25 mg free base compound I-1, read-out: % F (percent bioavailability)) is 7.9%. In series [2] (cynomolgus monkey, po, n=3, capsule with equivalent of 25 mg free base compound I-1, plasma, normalized to 5 mg/kg of compound I-1, read-out: Average AUC0-24 h ± SD (5 mg/kg basis)), the AUC(0-t) stood at 921 ± 446 ng·h/mL.

(Values after patent publication US12441723B2, “Pyrazole compounds, formulations thereof, and a method for using the compounds and/or formulations” (Rigel Pharmaceuticals, Inc., priority 2019, dated 2025).)
